# In PubChem BioAssay AID1996:
# Settings: buffer; pH 7.4; 200.0 µM
row,Structure (SMILES),solubility kinetic [µg/mL]
1,CC(=O)c1c(C)[nH]c(C(=O)OCCOc2ccccc2)c1C,1.3
2,O=C(O)c1cccc2c1C(=O)N(Cc1ccccc1)C2,> 40.1
3,FC(F)(F)c1ccnc(NCc2ccc(Cl)cc2)n1,4.3
4,Cc1cc(Br)ccc1OCC(=O)NC1CCCC1,31.4
5,O=C(CN1C(=O)NC2(CCCCCC2)C1=O)c1cccs1,> 46
6,CS(=O)(=O)N1CCN(Cc2ccc([N+](=O)[O-])cc2)CC1,> 44.9
7,CCN(CC)c1ccc(CNc2nc3ccccc3n2CC)cc1,10.9
8,CN(C)c1ccc(CN2CCC(C(N)=O)CC2)cc1.O=C(O)C(=O)O,> 52.7
9,CCC1CN(C(=O)Nc2cccc(C)c2)c2cc(C)ccc2O1 (centres undefined),7.5
10,CCc1cc(C(=O)NCC2CCCO2)sc1C (centres undefined),> 38
11,Cc1cc(C)n2nc(SCC(=O)N3CCC(C)CC3)nc2n1,> 47.9
12,O=C1NC2=C(C(=O)CCC2)C(c2ccccc2[N+](=O)[O-])N1 (centres undefined),> 43.1
13,N#Cc1ccccc1NC(=O)CN1CC=C(c2ccccc2)CC1,15.7
14,S=c1ccc2ccccc2[nH]1,22.6
15,CC1(C)CC(=O)C=C(Nc2ccc(F)c(Cl)c2)C1,> 40.2
16,Cl.Oc1cc2c(cc1O)C(c1ccccc1)CNCC2 (centres undefined),> 43.8
17,Cc1ccc(/C=C/C(=O)NN2CCN(C)CC2)cc1,> 38.9
18,COC(=O)c1cccnc1Oc1ccccc1,26.5
19,Cc1cc(NC(=O)CN(C)CC(=O)Nc2ccc(Cl)cc2)no1,> 50.5
20,O=C(Nc1ccccc1)N1CCN(CCc2ccccc2)CC1,41.6
21,COc1ccccc1CC(=O)NCCCc1ccccc1,> 42.5
22,CC(C)CCC1(C)NC(=O)N(CC(=O)NCC(=O)Nc2ccc(F)c(F)c2F)C1=O (centres undefined),> 64.3
23,CN(C)CCCOC(=O)c1sc2ccccc2c1Cl.Cl,> 50.1
24,O=C(O)C1CCCCC1C(=O)NCc1ccccn1 (centres undefined),> 39.3
25,NC(=O)Cn1nc(C(F)(F)F)c2c1CCCC2,> 37.1

row,Structure (SMILES),solubility kinetic [µg/mL]
1,CSc1ncccc1C(=O)OCc1ccccc1Cl,< 0.6
2,Cc1ccc(S(=O)(=O)C2(C(=O)NC3CCCCC3C)CC2)cc1 (centres undefined),37.3
3,S=c1[nH]cnc2scc(-c3ccc(Cl)cc3)c12,0.5
4,O=C(Nc1ccc(C(F)(F)F)cc1)OC1CN2CCC1CC2 (centres undefined),45.1
5,Cc1ccc(C(=O)N/N=C\c2ccccn2)cn1,> 36
6,CCCOc1cccc(C(=O)NCCNC(=O)c2ccco2)c1,> 47.5
7,CC(=O)CC1=NC(C)(C)Cc2ccccc21,17.2
8,COCc1nc2ccccc2n1Cc1c(F)cccc1Cl,> 45.7
9,N/C(=N\OC(=O)Nc1cccc(C(F)(F)F)c1)c1ccno1,18.7
10,COc1cccc(OCCn2cc(C(C)=O)c3ccccc32)c1,10.9
11,CCCCOc1ccc(/C(O)=C(\C#N)c2nc3ccccc3[nH]2)cc1,< 0.2
12,O=C(OCc1ccc([N+](=O)[O-])cc1)c1cc(=O)c2ccccc2o1,5.9
13,O=C(NCc1ccco1)c1ccc2nccnc2c1,> 38
14,O=C(NCc1c(O)ccc2ccccc12)c1ccccc1,1
15,CC(C)OP(=O)(O)NC(=O)c1ccccc1,> 36.5
16,CC(=O)Nc1ccc(NC(=O)Nc2cc(C)cc(C)c2)cc1,0.8
17,COC(c1ccccc1)c1nc2ccccc2[nH]c1=O (centres undefined),> 39.9
18,O=C(COC(=O)c1c(F)cccc1F)Nc1ccc(N2CCCCC2)cc1,5.2
19,COc1cccc(CNC(=O)CCNC(=O)c2ccccc2OC)c1,> 51.4
20,CN(C)CCCNC1=CC(=O)CC(c2ccccc2)C1 (centres undefined),34.8
21,C#CCOC(=O)C[N+](C)(C)CC=C.[Cl-],> 32.7
22,C/C(=C\c1ccc(Cl)cc1)C(=O)c1c(C)cc(C)[nH]c1=O,42.8
23,CC(C)(C)OC(=O)N1CCC(CNC(=O)c2ccccc2)CC1,> 47.8
24,Cc1ccc(S(=O)(=O)Nc2ccc(F)c(S(=O)(=O)N3CCOCC3)c2)cc1,> 62.2
